# According to ChEMBL document CHEMBL1667735, “Human cytochrome P450 liability studies of trans-dihydronarciclasine: a readily available, potent, and selective cancer cell growth inhibitor” (J Nat Prod, 2011):
# What was measured:
# Cytochrome P450 1A1 = target: T1, Cytochrome P450 1A1 (Homo sapiens, UniProt P04798); experiment: Inhibition of human CYP1A1 at 10 uM; assay type: ADME
# T1 sequence (P04798 whole entry): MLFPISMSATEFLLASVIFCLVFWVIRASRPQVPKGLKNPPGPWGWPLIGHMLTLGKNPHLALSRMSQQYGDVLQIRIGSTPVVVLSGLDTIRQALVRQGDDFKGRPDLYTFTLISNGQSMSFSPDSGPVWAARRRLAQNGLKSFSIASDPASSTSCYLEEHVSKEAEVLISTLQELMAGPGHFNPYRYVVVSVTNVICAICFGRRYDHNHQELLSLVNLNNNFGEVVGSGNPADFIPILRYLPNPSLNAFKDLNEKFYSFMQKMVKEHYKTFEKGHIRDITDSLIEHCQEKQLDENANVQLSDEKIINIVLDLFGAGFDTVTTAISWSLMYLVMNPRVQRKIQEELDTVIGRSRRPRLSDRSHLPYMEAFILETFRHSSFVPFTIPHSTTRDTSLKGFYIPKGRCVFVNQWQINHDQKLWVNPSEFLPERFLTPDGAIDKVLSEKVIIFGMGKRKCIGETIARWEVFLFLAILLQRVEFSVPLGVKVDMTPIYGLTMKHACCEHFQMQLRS
# Aromatase = target: T2, Aromatase (Homo sapiens, UniProt P11511); experiment: Inhibition of human CYP19 at 10 uM; assay type: ADME
# T2 sequence (P11511 whole entry): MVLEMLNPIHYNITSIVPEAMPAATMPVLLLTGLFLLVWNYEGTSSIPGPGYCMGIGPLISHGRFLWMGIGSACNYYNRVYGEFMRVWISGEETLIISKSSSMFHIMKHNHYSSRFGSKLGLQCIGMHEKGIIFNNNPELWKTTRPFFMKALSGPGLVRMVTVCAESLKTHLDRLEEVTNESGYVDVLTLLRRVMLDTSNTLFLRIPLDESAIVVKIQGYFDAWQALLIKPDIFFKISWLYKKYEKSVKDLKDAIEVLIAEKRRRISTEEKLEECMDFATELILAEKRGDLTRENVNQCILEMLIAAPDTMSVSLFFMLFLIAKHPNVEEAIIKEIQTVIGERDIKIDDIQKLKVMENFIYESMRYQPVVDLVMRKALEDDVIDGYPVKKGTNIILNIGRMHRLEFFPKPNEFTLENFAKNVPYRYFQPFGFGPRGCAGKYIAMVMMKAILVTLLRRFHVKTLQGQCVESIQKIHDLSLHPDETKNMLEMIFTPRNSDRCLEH
compound,measurement,setting,value
O=C1N[C@H]2[C@H](O)[C@H](O)[C@@H](O)C[C@@H]2c2cc3c(c(O)c21)OCO3,inhibition (INH),Cytochrome P450 1A1,Not Active
same,inhibition (INH),Aromatase,Not Active
